This is an account of results in patent US4622319A, “Methods of using PAF-antagonistic diazepines” (Boehringer Ingelheim KG, priority 1984, dated 1986).

SMILES strings stand for the structures. pIC50: −log10 of the molar value. Where only a bound is given, the exact number is not on record here.

What is called pIC50 is the negative decadic logarithm of the IC50, by convention in mol/L.

The assay deals with PAF-induced aggregation of human thrombocytes. Kind of assay: Inhibition of PAF-induced blood platelet aggregation in vitro. Format: cell-based. Particulars: human thrombocyte-rich plasma, aggregation induced with PAF 5×10^-8 M, concentration giving 50% inhibition of aggregation, read-out: PAF-Antag. IC50. How it is done:
1. Inhibition of blood platelet aggregation in vitro
The PAF-induced aggregation of human thrombocytes in vitro is used to determine PAF-antagonistic activity. To obtain thrombocyte-rich plasma (TRP), blood is taken from an uncongested vein using a plastic syringe containing 3.8% sodium citrate solution. The ratio of sodium citrate solution to blood is 1:9. After careful mixing the citrate blood is centrifuged for 20 minutes at 150 g (1200 rpm). The thrombocyte aggregation is measured using the method devised by Born and Cross (G. V. R. Born and M. J. Cross, J. Physiol. 168, 178 (1963)), by adding an aggregation initiator (PAF) to the TRP with constant stirring.
The test substance is added 2 to 3 minutes before aggregation is initiated in a volume of 10 μl. Either distilled water, ethanol and/or dimethylsulphoxide (each in suitable concentrations) can be used as solvent.
Control mixtures contain corresponding volumes of these solvents. After the initial absorption has been recorded (2 to 3 minutes) aggregation is induced with PAF (5×10^-8 M).
The maximum of the first aggregation wave is used to assess the effects of the substance. The PAF-induced maximum absorption rate (=maximum aggregation×100%) is tested at the same time in a parallel mixture (=control mixture in one of the channels of the two-channel aggregometer) as each test mixture (second channel) and is used as a 100% value.
The aggregation value attained under the effect of the test substance is given as a percentage of the control value, i.e. less than 100% in the case of an inhibition of aggregation and over 100% in the case of an increase.
Each test substance is investigated at concentrations of from 10^-3 to 10^-8 M with a random sampling of n=4 with regard to an inhibitory effect on the PAF-induced thrombocyte aggregation. Then a concentration-activity curve is drawn up using 3 concentrations and the IC50 is determined (concentration giving a 50% inhibition of aggregation).
Consider `CCn1nc(C)c2c1N(c1ccccc1)C(=O)CC(=O)N2` [Compound 17], for which the pIC50 was below 4.00.
Next, `CN1C(=O)CC(=O)N(c2ccccn2)c2cc(Br)ccc21` [Compound 9]: below 3.00; `CN1C(=O)CC(=O)N(c2ccccc2)c2ccc(Cl)cc21` [Compound 11]: 3.68; `CN1C(=O)CC(=O)N(c2ccccc2)c2cc(C(F)(F)F)ccc21` [Compound 2, Triflubazam, reference compound]: 3.70.
For the compound `CCN1CCC(=O)N(c2ccccc2)c2cnccc21` [Compound 15], the negative-log IC50 (pIC50) is below 4.00.
Next, `CN1CCC(=O)N(c2ccccc2)c2cc(Br)ccc21` [Compound 13]: below 3.00; `O=C1CCN(CCO)c2ccc(Cl)cc2N1c1ccccc1` [Compound 14]: 3.55.
In the case of `CN1C(=O)CC(=O)N(c2ccccc2Cl)c2cc(Cl)ccc21` [Compound 5], the pIC50 is 3.66.
`O=C1CC(=O)N(c2ccccc2)c2cc(Br)ccc2N1`: the negative-log IC50 (pIC50) was 3.33.
As for `CN1C(=O)CC(=O)N(c2ccccc2C(F)(F)F)c2cc(Cl)ccc21` [Compound 6], the figure is 4.18.
Next, `CN1C(=O)CC(=O)N(c2ccccc2Cl)c2cc([N+](=O)[O-])ccc21` [Compound 10]: 3.51.
Turning to `CN1C(=O)CC(=O)N(c2ccccc2F)c2ccccc21` [Compound 7], the negative-log IC50 (pIC50) was 4.02.
As for `CCN1C(=O)CC(=O)N(c2ccccc2)c2cc(Cl)ccc21` [Compound 4], the figure is 4.01; as for `CC1C(=O)Nc2ccc(Br)cc2N(c2ccccc2)C1=O` (centres unmarked) [Compound 12], 3.46.
Next, `COc1ccccc1N1C(=O)CC(=O)N(C)c2ccc(Cl)cc21` [Compound 8]: 3.54.
Next, `CN1C(=O)CC(=O)N(c2ccccc2)c2cc(Cl)ccc21` [Compound 1, Clobazam, reference compound]: 3.60; `CN1C(=O)CC(=O)N(c2ccccc2)c2cnccc21` [Compound 16]: below 4.30.
